Experimental data taken from patent US10100056B2, “SHIP1 modulators and methods related thereto” (Aquinox Pharmaceuticals (Canada) Inc., priority 2013, dated 2018).

Legend:
His-hSHIP1 enzyme = target: T1, His-hSHIP1 enzyme (Homo sapiens, UniProt Q92835); assay: His-hSHIP1 activity (phosphatase assay, IP4 substrate, Biomol Green); format: biochemical; parameters: key to Scoring, Approach 2 (Initial velocity Ratio): +++: higher than reference or reference - 15%; ++: reference - 16% to reference - 30%; +: reference - 31% or lower; −: inhibitor; settings: second approach: ratio of initial velocities IP4 25/250 μM compared with reference compound; values without asterisk
T1 construct: His
T1 sequence (Q92835 1-1189): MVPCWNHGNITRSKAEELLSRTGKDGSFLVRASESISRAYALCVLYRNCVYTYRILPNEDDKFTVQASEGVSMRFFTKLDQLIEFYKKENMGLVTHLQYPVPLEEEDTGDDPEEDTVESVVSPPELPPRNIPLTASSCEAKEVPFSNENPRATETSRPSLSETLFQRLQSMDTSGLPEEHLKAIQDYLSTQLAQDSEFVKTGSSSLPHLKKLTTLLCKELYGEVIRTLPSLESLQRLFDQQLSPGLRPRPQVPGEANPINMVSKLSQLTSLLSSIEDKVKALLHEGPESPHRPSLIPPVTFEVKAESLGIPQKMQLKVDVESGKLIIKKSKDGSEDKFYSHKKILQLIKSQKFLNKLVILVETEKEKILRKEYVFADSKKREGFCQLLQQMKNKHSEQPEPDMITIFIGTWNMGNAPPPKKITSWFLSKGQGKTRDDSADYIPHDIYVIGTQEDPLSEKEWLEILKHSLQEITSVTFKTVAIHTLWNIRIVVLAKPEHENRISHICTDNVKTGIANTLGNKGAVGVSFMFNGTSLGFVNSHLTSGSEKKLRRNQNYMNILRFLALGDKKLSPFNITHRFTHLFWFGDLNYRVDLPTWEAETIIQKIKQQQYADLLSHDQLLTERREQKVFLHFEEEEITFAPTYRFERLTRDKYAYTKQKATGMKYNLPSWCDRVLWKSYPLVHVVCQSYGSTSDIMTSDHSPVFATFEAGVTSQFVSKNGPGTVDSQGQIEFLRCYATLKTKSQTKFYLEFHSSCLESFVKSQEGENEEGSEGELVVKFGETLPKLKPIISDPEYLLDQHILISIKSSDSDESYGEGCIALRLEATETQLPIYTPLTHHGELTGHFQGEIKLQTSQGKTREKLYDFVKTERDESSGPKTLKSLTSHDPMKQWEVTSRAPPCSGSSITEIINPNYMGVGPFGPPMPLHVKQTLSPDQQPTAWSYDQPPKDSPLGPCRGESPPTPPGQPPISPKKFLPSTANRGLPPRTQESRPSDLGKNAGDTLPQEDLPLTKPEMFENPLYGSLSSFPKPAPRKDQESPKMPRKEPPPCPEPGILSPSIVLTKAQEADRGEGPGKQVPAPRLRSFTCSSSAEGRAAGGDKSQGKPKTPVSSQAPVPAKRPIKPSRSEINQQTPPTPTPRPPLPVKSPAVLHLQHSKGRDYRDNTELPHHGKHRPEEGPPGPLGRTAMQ
Experimental: Test compounds are dissolved in 95% ethanol to form stock solutions. Before screening, the stock solutions are diluted with Phosphatase Assay Buffer (20 mM Tris-HCL, 10 mM MgCl2 pH 7.5, 0.02% Tween 20) to form working assay solutions that contain 10% ethanol. The assay is carried out on 96-well microtiter plates using a modified procedure of that reported by Ong et al., Blood 110, 1942-1949, 2007 and Yang et al., Org Lett 7, 1073-1076, 2005, both of which references are incorporated herein by reference in their entirety.
Data were generated by one of two variant methods. Test compounds are screened by one of two approaches described as follows. In the first approach, each reaction contains 5 μL of His-hSHIP1 enzyme (5-20 ng), 10 μL of the substrate, 1,3,4,5-inositol tetrakisphosphate (IP4; 50 μM final), 5 μL of Phosphatase Assay Buffer, and 5 µL of test compound at various concentrations in 10% ethanol (0-300 μM final). Control blanks are also prepared by replacing His-hSHIP1 enzyme, IP4, or test compounds with Phosphatase Assay Buffer. After adding the reaction components in a 96-well microtiter plate on ice, the reaction is mixed by briefly shaking the plate vigorously. The reaction is then incubated at 37° C. for 15 min with gentle shaking followed by addition of 100 μL of Biomol Green Reagent (BIOMOL, PA, USA) to terminate the reaction. The free phosphate released from IP4 by His-hSHIP1 binds to the Biomol Green Reagent, which turns the dye to green color. After incubating the mixture for 20 min at room temperature for color development, the absorbance is read with SpectraMax Plus 96-well plate reader (Molecular Devices, Sunnyvale, Calif., USA) at a wavelength of 650 nm.
In the second approach, a master mix is prepared that contains 50 μL of His-hSHIP1 enzyme (0.4-1.6 ng/μL final), 25 μL of the substrate, IP4 (25 or 250 μM final), and 50 μL of test compound in 3.3% ethanol (100 μL final). Control blanks are also prepared by replacing His-hSHIP1 enzyme, IP4, or test compounds with Phosphate Assay Buffer. […] Each reaction component is preincubated at 37° C. for 30 min before adding to a 96-well microtiter plate. The master mix is then incubated at 37° C. At time 0, 20, and 30 min, 25 μL of the master mix is removed and transferred to a new 96-well microtiter plate, to which 100 μL of Biomol Green Reagent is added to stop the reaction. After incubating the mixture for 20 min at room temperature for color development, the absorbance is read with SpectraMax Plus 96-well plate reader at a wavelength of 650 nm. Phosphate released is plotted against time to calculate the initial velocities (i.e., slope of the graph) at each IP4 concentration. The initial velocities are baseline corrected and the ratio of initial velocities (IP425/IP4250) is calculated and used to rate the test compounds.

[1] = tested on: Akt phosphorylation in Molt-4 (PTEN-/SHIP1+) cells; assay: Akt phosphorylation in lymphocytes (Western blot, IGF-1 stimulated); format: cell-based; parameters: key: +: inhibits Akt phosphorylation at 30 μM; −: no effect on Akt phosphorylation at 30 μM; settings: 30 μM; Molt-4 (SHIP1+) cells, IGF-1 100 ng/mL
Experimental: Molt-4 (PTEN-/SHIP1+) cells are starved in serum free RPMI for overnight. In a 15 mL conical tube, 2-3 million serum starved cells (1 million cells per mL) are treated with various concentrations of test compound ([…]) for 30 min at 37° C. followed by stimulation with 100 ng/mL of IGF-1 for 1 hour at 37° C. After stimulation, cells are washed once with ice-cold DPBS and lysed with Lysis Buffer (20 mM Tris-HCl, pH 7.5, 140 mM NaCl, 1% NP-40, Complete Mini Protease Inhibitor Cocktail, 10 mM NaF, 1 mM Na3VO4, 1 mM β-glycerolphosphate) on ice for 30 min with vortexing every 10 min. Samples are then centrifuged at 13,000 rpm for 20 min, and supernatants are collected as total cell lysate samples. Protein concentration is determined using bicinchonic acid assay, and about 15 μg of total protein from each sample is loaded and separated on a 4-12% Tris-Glycine gel. After SDS-PAGE, proteins are transferred from the gel to a nitrocellulose membrane. The membrane is blocked in 5% BSA in PBS containing 0.1% Tween-20 (PBS-T) for 1 hour at room temperature before probing with primary antibodies for overnight at 4° C. The following antibodies are used: mouse anti-SHIP1 (1:500 dilution; Santa Cruz, Calif., USA), rabbit anti-phospho-Akt (Ser473) (1:1000 dilution; Cell Signaling Technologies, MA, USA), rabbit anti-Akt (1:1000; Cell Signaling Technologies, MA, USA), and rabbit anti-actin (1:2000; Cell Signaling Technologies, MA, USA). The membrane is then incubated with goat anti-rabbit or anti-mouse secondary antibodies (1:3000) for 1 hour at room temperature. Target proteins on the membrane are detected with ECL solution and exposed on a film.

Row | Structure (SMILES) | Scoring, Approach 2 (Initial velocity Ratio) (His-hSHIP1 enzyme) | Molt-4 (SHIP+): inhibition of Akt phosphorylation [1]
1 | CC1(C)CCC2=C1CC[C@H]([C@@]1(C)CC[C@H](O)C[C@@H]1CO)[C@H]2CNC(=N)N.Cl [Cpd. No. 1, 1-(((4R,5S)-5-((1R,2S,4S)-4-hydroxy-2-(hydroxymethyl)-1-methylcyclohexyl)-1,1-dimethyl-2,3,4,5,6,7-hexahydro-1H-inden-4-yl)methyl)guanidine hydrochloride] | ++ | +
2 | C=C1CC[C@H]2[C@H](CNCc3ccc(OC)cc3)[C@@H]([C@@]3(C)CC[C@H](O)C[C@@H]3CO)CC[C@]12C [Cpd. No. 18, (1S,3S,4R)-3-(hydroxymethyl)-4-((3aS,4R,5S,7aS)-4-((4-methoxybenzylamino)methyl)-7a-methyl-1-methyleneoctahydro-1H-inden-5-yl)-4-methylcyclohexanol] | + | +
3 | C=C1CC[C@H]2[C@H](Cn3cncn3)[C@@H]([C@@]3(C)CC[C@H](O)C[C@@H]3CO)CC[C@]12C [Cpd. No. 27, (1S,3S,4R)-4-((3aS,4R,5S,7aS)-4-((1H-1,2,4-triazol-1-yl)methyl)-7a-methyl-1-methyleneoctahydro-1H-inden-5-yl)-3-(hydroxymethyl)-4-methylcyclohexanol] | + | −
4 | C=C1CC[C@H]2[C@H](O)[C@@H]([C@@]3(C)CC[C@H](O)C[C@@H]3CCN3CCOCC3)CC[C@]12C [Cpd. No. 46, (3aR,4R,5R,7aS)-5-((1S,2S,4S)-4-hydroxy-1-methyl-2-(2-morpholinoethyl)cyclohexyl)-7a-methyl-1-methyleneoctahydro-1H-inden-4-ol] | ++ | +
5 | CC1(C)C2=C(C[C@H]1O)[C@H](CO)[C@@H]([C@@]1(C)CC[C@H](O)C[C@@H]1CO)CC2 [Cpd. No. 66, (2R,4R,5S)-5-((1R,2S,4S)-4-hydroxy-2-(hydroxymethyl)-1-methylcyclohexyl)-4-(hydroxymethyl)-1,1-dimethyl-2,3,4,5,6,7-hexahydro-1H-inden-2-ol] | + | 
6 | C=C1CC[C@H]2[C@H](COCc3ccccc3)[C@@H]([C@@]3(C)CC[C@H](O)C[C@@H]3CO)CC[C@]12C [Cpd. No. 67, (1S,3S,4R)-4-((3aS,4R,5S,7aS)-4-(benzyloxymethyl)-7a-methyl-1-methyleneoctahydro-1H-inden-5-yl)-3-(hydroxymethyl)-4-methylcyclohexanol] | ++ | 
7 | C=C1CC[C@H]2[C@H](CNC(=O)c3cccnc3)[C@@H]([C@@]3(C)CC[C@H](O)C[C@@H]3CO)CC[C@]12C [Cpd. No. 69, N-(((3aS,4R,5S,7aS)-5-((1R,2S,4S)-4-hydroxy-2-(hydroxymethyl)-1-methylcyclohexyl)-7a-methyl-1-methyleneoctahydro-1H-inden-4-yl)methyl)nicotinamide] | + | 
8 | C=C1CC[C@H]2[C@H](CNC(=O)NCc3ccccc3)[C@@H]([C@@]3(C)CC[C@H](O)C[C@@H]3CO)CC[C@]12C [Cpd. No. 91, 1-benzyl-3-(((3aS,4R,5S,7aS)-5-((1R,2S,4S)-4-hydroxy-2-(hydroxymethyl)-1-methylcyclohexyl)-7a-methyl-1-methyleneoctahydro-1H-inden-4-yl)methyl)urea] | + | 
9 | C=C1CC[C@H]2[C@H](CCNC(=O)c3ccc4c(c3)OCO4)[C@@H]([C@@]3(C)CC[C@H](O)C[C@@H]3O)CC[C@]12C [Cpd. No. 93, N-(2-((3aS,4S,5S,7aS)-5-((1R,2S,4S)-2,4-dihydroxy-1-methylcyclohexyl)-7a-methyl-1-methyleneoctahydro-1H-inden-4-yl)ethyl)benzo[d][1,3]dioxole-5-carboxamide] | ++ | 
